Source: patent publication US9896445B2, “Heterocyclic inhibitors of ERK1 and ERK2 and their use in the treatment of cancer” (Asana Biosciences, LLC, priority 2015, dated 2018)

Experiments:
[1] = target: T1, ERK1 (Homo sapiens, UniProt P27361); assay: ERK1 HTRF (biochemical) assay
T1 construct: purchased Jubilant Biosys
Method: ERK1 and ERK2 HTRF (Biochemical) Assays
These assays employed a homogeneous time resolved fluorescence (HTRF) technique. […] The plate was incubated at room temperature for 60 min with shaking. […] The IC50 values (half maximal inhibitory concentration values) were subsequently determined using a sigmoidal dose-response curve (variable slope) in GraphPad Prism® 5 software.

[2] = target: T2, ERK2 (Homo sapiens, UniProt P28482); assay: ERK2 HTRF (biochemical) assay
T2 construct: purchased Jubilant Biosys
T2 sequence (P28482 whole entry): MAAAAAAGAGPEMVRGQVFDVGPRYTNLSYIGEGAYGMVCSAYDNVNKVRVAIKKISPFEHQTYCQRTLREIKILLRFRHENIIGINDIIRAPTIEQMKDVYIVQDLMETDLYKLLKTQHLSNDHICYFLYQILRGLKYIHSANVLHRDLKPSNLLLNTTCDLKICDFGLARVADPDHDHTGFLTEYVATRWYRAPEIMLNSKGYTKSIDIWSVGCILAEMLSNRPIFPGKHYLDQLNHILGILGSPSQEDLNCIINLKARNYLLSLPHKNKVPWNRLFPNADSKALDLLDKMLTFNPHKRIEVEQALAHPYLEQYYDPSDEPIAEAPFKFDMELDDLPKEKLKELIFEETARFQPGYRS
Method in brief: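 Compounds were tested as half-log dilutions from 0.0005 to 10 uM in Tris pH 7.5/MgCl2 buffer, with a substrate mix of 1 uM biotin-MBP peptide and 24 uM ATP and an enzyme mix of 25 nM ERK2. Reaction ran 60 min at room temperature. Phospho-MBP was detected by HTRF (Eu-anti-phospho-MBP/SA-APC, 665/620 nm), and IC50 was fitted with a variable-slope sigmoidal curve.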

T1 sequence (P27361 whole entry): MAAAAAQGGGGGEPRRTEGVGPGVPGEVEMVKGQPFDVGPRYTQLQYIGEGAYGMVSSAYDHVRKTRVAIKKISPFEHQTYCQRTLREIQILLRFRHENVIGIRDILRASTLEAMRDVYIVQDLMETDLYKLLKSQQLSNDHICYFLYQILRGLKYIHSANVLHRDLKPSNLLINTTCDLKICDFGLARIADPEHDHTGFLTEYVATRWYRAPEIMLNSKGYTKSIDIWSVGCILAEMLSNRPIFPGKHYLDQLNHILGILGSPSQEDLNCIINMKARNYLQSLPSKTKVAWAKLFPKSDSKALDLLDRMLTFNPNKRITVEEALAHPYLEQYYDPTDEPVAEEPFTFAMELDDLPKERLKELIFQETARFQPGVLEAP

Row | IC50 ([1]; HTRF) [nM] | IC50 ([2]; HTRF) [nM] | IC50 ([1]; HTRF biochemical assay) [nM] | IC50 ([2]; HTRF biochemical assay) [nM] | SMILES
1 | 100 to 500 | 50 to 100 | – | – | Cc1cnc(Nc2ccc3c(c2)OCO3)nc1-n1cc(NC(=O)N[C@@H](CO)c2cccc(Cl)c2)cn1 [Compound 51, (R)-1-(1-(2-(benzo[d][1,3]dioxol-5-ylamino)-5-methylpyrimidin-4-yl)-1H-pyrazol-4-yl)-3-(1-(3-chloro-phenyl)-2-hydroxy-ethyl)urea]
2 | < 50 | ≤ 50 | – | – | Cc1cccc(C(CO)NC(=O)c2ccn(-c3nc(N[C@H]4CCOC4)ncc3C)c2)c1 (stereo partly drawn) [Compound 187, N-(2-hydroxy-1-(m-tolyl)ethyl)-1-(5-methyl-2-(((S)-tetrahydrofuran-3-yl)amino)pyrimidin-4-yl)-1H-pyrrole-3-carboxamide]
3 | 100 to 500 | ≤ 50 | – | – | Cc1cnc(Nc2ccc(F)cc2Cl)nc1-n1ccc(C(=O)NC(COC(=O)C(N)CC(C)C)c2ccccc2)c1 (stereo not shown) [Compound 150, 2-(1-(2-((2-chloro-4-fluorophenyl)-amino)-5-methyl-pyrimidin-4-yl)-1H-pyrrole-3-carboxamido)-2-phenylethyl 2-amino-4-methyl-pentanoate]
4 | < 50 | ≤ 50 | – | – | Cc1cnc(NC2CC2)nc1-n1ccc(C(=O)NC(CO)c2cccc(Cl)c2)c1 (stereo not shown) [Compound 115, N-(1-(3-chloro-phenyl)-2-hydroxy-ethyl)-1-(2-(cyclopropylamino)-5-methylpyrimidin-4-yl)-1H-pyrrole-3-carboxamide]
5 | 50 to 100 | 50 to 100 | – | – | Cc1cnc(NC2CCCCC2O)nc1-n1ccc(C(=O)NC(CO)c2ccc(F)c(Cl)c2)c1 (stereo not shown) [Compound 202, N-(1-(3-chloro-4-fluorophenyl)-2-hydroxyethyl)-1-(2-((2-hydroxy-cyclohexyl)amino)-5-methylpyrimidin-4-yl)-1H-pyrrole-3-carboxamide]
6 | < 50 | ≤ 50 | – | – | Cc1cnc(Nc2ccc3c(c2)OCO3)nc1-n1ccc(C(=O)N[C@H](CO)c2ccccc2)c1 [Compound 60, (S)-1-(2-(benzo[d][1,3]dioxol-5-ylamino)-5-methylpyrimidin-4-yl)-N-(2-hydroxy-1-phenylethyl)-1H-pyrrole-3-carboxamide]

The next lines start with the molecule.

Row | SMILES | IC50 ([1]; HTRF) [nM] | IC50 ([2]; HTRF) [nM] | IC50 ([1]; HTRF biochemical assay) [nM] | IC50 ([2]; HTRF biochemical assay) [nM]
7 | Cc1cnc(NC2CCOCC2)nc1-n1cnc(C(=O)N[C@H](CO)c2cc(F)cc(Cl)c2)c1 [Example 295, (S)-N-(1-(3-chloro-5-fluorophenyl)-2-hydroxyethyl)-1-(5-methyl-2-((tetrahydro-2H-pyran-4-yl)amino)-pyrimidin-4-yl)-1H-imidazole-4-carboxamide] | < 50 | ≤ 50 | – | –
8 | Cc1cnc(Nc2ccc(F)cc2)cc1-n1cnc(C(=O)NC(CN)c2ccccc2)c1 (single isomer, unassigned) [Compound 228, N-(2-amino-1-phenylethyl)-1-(2-((4-fluorophenyl)-amino)-5-methyl-pyridin-4-yl)-1H-imidazole-4-carboxamide] | 100 to 500 | 100 to 500 | – | –
9 | Cc1cnc(Nc2ccc(F)cc2)cc1-n1cnc(C(=O)NC(CN)c2ccc(F)cc2)c1 (stereo not shown) [Compound 230, N-(2-amino-1-(4-fluorophenyl)ethyl)-1-(2-((4-fluoro-phenyl)amino)-5-methylpyridin-4-yl)-1H-imidazole-4-carboxamide] | < 50 | ≤ 50 | – | –
10 | Cc1cnc(NC2CCOCC2)nc1-n1cnc(C(=O)NC(CO)c2ccsc2)c1 (stereo not shown) [Compound 234, N-(2-hydroxy-1-(thiophen-3-yl)ethyl)-1-(5-methyl-2-((tetrahydro-2H-pyran-4-yl)amino)-pyrimidin-4-yl)-1H-imidazole-4-carboxamide] | < 50 | ≤ 50 | – | –
11 | Cc1cnc(NC2CCOCC2)nc1-n1cnc(C(=O)NC(C(N)=O)c2cccc(Cl)c2)c1 (stereo not shown) [Example 312, N-(2-amino-1-(3-chlorophenyl)-2-oxoethyl)-1-(5-methyl-2-((tetrahydro-2H-pyran-4-yl)amino)-pyrimidin-4-yl)-1H-imidazole-4-carboxamide] | – | – | < 50 | ≤ 50
